US11865176B2, “Compositions and methods of modulating anti-tumor immunity” (Dana-Farber Cancer Institute, Inc., priority 2016, dated 2024)
“And” between values parts separate entries of the source, which are not always exact repeats. Equal entries are not always repeated. Structures can show the parent of a compound that is named as a salt. Where two headings read alike, the source gives them in different places.

Tested on: PD-1-overexpressing Jurkat cells
Assay: Small molecule screen: IL2 secretion (AlphaLISA) from stimulated PD-1-overexpressing Jurkat cells
Format: cell-based, human
Procedure: PD-1-overexpressing Jurkat cells were plated at a concentration of 100,000 cells/well in a total volume of 80 μl. […] Dynabeads conjugated to α-CD3, α-CD28, and α-PD-1 antibodies were added in 20 for a final assay volume of 100 with a final compound concentration of 3.3 μM and an 8:1 bead:cell ratio. Beads were conjugated to α-CD3/α-CD28/control IgG and added to wells containing DMSO-treated cells as a positive control, while beads conjugated to α-CD3/α-CD28/α-PD1 were added to wells containing DMSO-treated cells as a negative control. Supernatants from each well were analyzed for IL2 levels by AlphaLISA (Perkin Elmers) according to the manufacturer's protocol. Average and standard deviation values were calculated from the PD-1 controls (DMSO-treated cells stimulated with α-CD3/α-CD28/α-PD-1 beads); hits were defined as compounds scoring at least 3 standard deviations from the mean of the controls.
In addition to known negative regulators of IL-2 production (e.g. glycogen synthase kinase-3α/β (GSK3α/β) (24,25)), this screen identified cyclin-dependent kinases 4 and 6 inhibitors (CDK4/6i) as top hits (Table 1).

[1] = IL2 level, replicate 1, 3.3 μM compound, α-CD3/α-CD28/α-PD-1 beads
[2] = IL2 level, replicate 2, 3.3 μM compound, α-CD3/α-CD28/α-PD-1 beads
[3] = average of replicate Z scores, 3.3 μM compound

Compound: O=C(c1cc2cc(O)ccc2[nH]1)c1cc2cc(O)ccc2[nH]1 [Flt-3 Inhibitor II]
- Zscore_1 [1]: 1.536
- Zscore_2 [2]: 2.085
- Zscore_AVG [3]: 1.81

Compound: Cl.Cl.O=S(=O)(c1cccc2cnccc12)N1CCCNCC1 [HA 1077, Dihydrochloride Fasudil]
- Zscore_1 [1]: −1.883
- Zscore_2 [2]: −3.234
- Zscore_AVG [3]: −2.559

Compound: Cc1nc2cc3nc(-c4cccs4)cnc3cc2n1C [AGL 2043]
- Zscore_1 [1]: −0.2488
- Zscore_2 [2]: 1.253
- Zscore_AVG [3]: 0.5019

Compound: Nc1nc(Nc2ccc(S(N)(=O)=O)cc2)nn1C(=O)c1c(F)cccc1F [Aurora Kinase/Cdk Inhibitor]
- Zscore_1 [1]: −1.131
- Zscore_2 [2]: −3.054
- Zscore_AVG [3]: −2.093

Compound: Oc1ccc(-c2nc(-c3ccc(F)cc3)c(-c3ccncc3)[nH]2)cc1 [SB 202190]
- Zscore_1 [1]: −1.512
- Zscore_2 [2]: −3.097
- Zscore_AVG [3]: −2.304

Compound: O=C1Nc2ccc(I)cc2/C1=C1/Nc2ccccc2/C1=N\O [Indirubin-3′-monoxime, 5-Iodo-]
- Zscore_1 [1]: 10.18
- Zscore_2 [2]: 17.16
- Zscore_AVG [3]: 13.67

Compound: c1ccc(-c2cnc(Nc3ccc(OCCN4CCCC4)cc3)s2)cc1 [Flt-3 Inhibitor III]
- Zscore_1 [1]: 1.171
- Zscore_2 [2]: 3.361
- Zscore_AVG [3]: 2.266

Compound: Cn1cc(C2=C(c3cn(CCCSC(=N)N)c4ccccc34)C(=O)NC2=O)c2ccccc21 [Ro-31-8220]
- Zscore_1 [1]: −5.987
- Zscore_2 [2]: −6.268
- Zscore_AVG [3]: −6.128

Compound: CC[C@H](CO)Nc1nc(NCc2ccc(-c3ccccn3)cc2)c2ncn(C(C)C)c2n1 (single isomer, unassigned) [CR8, (R)-Isomer]
- Zscore_1 [1]: −9.662
- Zscore_2 [2]: −6.961
- Zscore_AVG [3]: −8.311

Compound: GTP-14564
- Zscore_1 [1]: −0.5638
- Zscore_2 [2]: 2.605
- Zscore_AVG [3]: 1.021

Compound: CCn1cnc2c(Nc3cccc(Cl)c3)nc(N[C@@H]3CCCC[C@@H]3N)nc21 [Cdk1 Inhibitor, CGP74514A]
- Zscore_1 [1]: 1.595
- Zscore_2 [2]: −1.02
- Zscore_AVG [3]: 0.2878

Compound: COc1ccc(CNC(=O)Nc2ncc([N+](=O)[O-])s2)cc1 [GSK-3b Inhibitor VIII]
- Zscore_1 [1]: 1.017
- Zscore_2 [2]: 0.5916
- Zscore_AVG [3]: 0.8042

Compound: G&omul; 7874, Hydrochloride
- Zscore_1 [1]: −4.465
- Zscore_2 [2]: −6.385
- Zscore_AVG [3]: −5.425

Compound: COc1nccc(-c2c(-c3ccc(F)cc3)ncn2C2CCC(O)CC2)n1 (stereo not drawn) [SB 239063]
- Zscore_1 [1]: −0.08397
- Zscore_2 [2]: 1.041
- Zscore_AVG [3]: 0.4785

Compound: CC[C@@H](CO)Nc1nc(NCc2ccc(-c3ccccn3)cc2)c2ncn(C(C)C)c2n1 (single isomer, unassigned) [CR8, (S)-Isomer]
- Zscore_1 [1]: −10.2
- Zscore_2 [2]: −10.59
- Zscore_AVG [3]: −10.39

Compound: O=C(O)c1ccc2c3c1cccc3c(=O)n1c3ccccc3nc21 [STO-609]
- Zscore_1 [1]: −1.71
- Zscore_2 [2]: −1.025
- Zscore_AVG [3]: −1.368

Compound: CC(=O)O/N=C1/C(=C2/C(=O)Nc3cc(Br)ccc32)Nc2ccccc21 [GSK-3 Inhibitor X]
- Zscore_1 [1]: 28.58
- Zscore_2 [2]: 35.89
- Zscore_AVG [3]: 32.23

Compound: O=C(Nc1cccc(Nc2nccc(Nc3cccc(C(F)(F)F)c3)n2)c1)C1CC1 [Aurora Kinase Inhibitor III]
- Zscore_1 [1]: 7.108 and 2.737
- Zscore_2 [2]: 6.482 and −0.8139
- Zscore_AVG [3]: 6.795 and 0.9614

Compound: Indirubin-3′-monoxime
- Zscore_1 [1]: 2.085
- Zscore_2 [2]: 1.884
- Zscore_AVG [3]: 1.985

Compound: Oc1cccc(-c2nc(N3CCOCC3)c3oc4ncccc4c3n2)c1 [PI-103]
- Zscore_1 [1]: −0.718
- Zscore_2 [2]: 0.8433
- Zscore_AVG [3]: 0.06265

Compound: O=c1c(-c2ccc(F)cc2)c(-c2ccncc2)[nH]n1-c1ccc(Cl)cc1 [p38 MAP Kinase Inhibitor]
- Zscore_1: −0.7181
- Zscore_2: −1.986
- Zscore_AVG: −1.352

Compound: Cn1cnc2cc3c(Nc4cccc(Br)c4)ncnc3cc21 [BPIQ-I]
- Zscore_1 [1]: 0.6533
- Zscore_2 [2]: 1.97
- Zscore_AVG [3]: 1.312

Compound: p38 MAP Kinase Inhibitor VIII
- Zscore_1 [1]: −1.144
- Zscore_2 [2]: −1.448
- Zscore_AVG [3]: −1.296

Compound: N#Cc1c(NC(=O)c2cccc3ccccc23)sc2c1CCCC2 [JNK Inhibitor IX]
- Zscore_1 [1]: 0.5842
- Zscore_2 [2]: −0.05285
- Zscore_AVG [3]: 0.2657

Compound: NC(=O)c1ccc2[nH]ccc2c1 [p38 MAP Kinase Inhibitor VII, SD-169]
- Zscore_1 [1]: 0.7558
- Zscore_2 [2]: 1.067
- Zscore_AVG [3]: 0.9116

Compound: Cl.NCCCn1cc(C2=C(c3c[nH]c4ccccc34)C(=O)NC2=O)c2ccccc21 [Bisindolylmaleimide III, Hydrochloride]
- Zscore_1 [1]: −3.661
- Zscore_2 [2]: −5.093
- Zscore_AVG [3]: −4.377

Compound: CCOC(=O)c1c(C)[nH]c(/C=C2\C(=O)Nc3ccccc32)c1C [VEGF Receptor 2 Kinase Inhibitor I]
- Zscore_1 [1]: −0.8038
- Zscore_2 [2]: −1.721
- Zscore_AVG [3]: −1.262

Compound: Cl.O=S(=O)(c1cccc2c(I)cccc12)N1CCCNCC1 [ML-7, Hydrochloride]
- Zscore_1 [1]: 2.906
- Zscore_2 [2]: 0.08811
- Zscore_AVG [3]: 1.497

Compound: COc1ccc(CNc2nc(N(CCO)CCO)nc3c2ncn3C(C)C)cc1 [Cdk2 Inhibitor III]
- Zscore_1 [1]: −2.414
- Zscore_2 [2]: −4.745
- Zscore_AVG [3]: −3.58

Compound: NC(=O)c1ccc2nc(-c3ccc(Oc4ccc(Cl)cc4)cc3)[nH]c2c1 [Chk2 Inhibitor II]
- Zscore_1 [1]: 2.673
- Zscore_2 [2]: 1.942
- Zscore_AVG [3]: 2.307

Compound: Cc1cc2ncc(-c3ccccc3)nc2cc1C [AG 1295]
- Zscore_1 [1]: −0.2372
- Zscore_2 [2]: −3.097
- Zscore_AVG [3]: −1.667

Compound: CC(=O)c1ccc(N2CCOCC2)cc1O [DNA-PK Inhibitor III]
- Zscore_1 [1]: 5.18
- Zscore_2 [2]: 6.23
- Zscore_AVG [3]: 5.705

Compound: O=C1NC(=O)C(c2cn(CCCO)c3ncccc23)=C1c1cnccn1 [GSK-3b Inhibitor XI]
- Zscore_1 [1]: 5.72
- Zscore_2 [2]: 4.871
- Zscore_AVG [3]: 5.296

Compound: N#C/C(=C(/N)Sc1ccccc1N)c1cccc(C(O)c2ccncc2)c1 (stereo not drawn) [MEK Inhibitor I]
- Zscore_1 [1]: −4.599
- Zscore_2 [2]: −4.873
- Zscore_AVG [3]: −4.736

Compound: Nc1nc(Nc2ccc(S(N)(=O)=O)cc2)nn1C(=S)Nc1c(F)cccc1F [Cdk1/2 Inhibitor III]
- Zscore_1 [1]: −10.55
- Zscore_2 [2]: −11.64
- Zscore_AVG [3]: −11.1

Compound: COc1cc2c(cc1OC)-c1[nH]nc(Nc3cccc(F)c3)c1C2 [PDGF Receptor Tyrosine Kinase Inhibitor IV]
- Zscore_1 [1]: −0.8894
- Zscore_2 [2]: −1.508
- Zscore_AVG [3]: −1.199

Compound: Ic1cccc(CSc2nnc(-c3ccncc3)o2)c1 [GSK-3b Inhibitor II]
- Zscore_1 [1]: −2.376
- Zscore_2 [2]: −0.4154
- Zscore_AVG [3]: −1.396

Compound: COc1cc2ncn(-c3cc(OCc4ccccc4S(C)(=O)=O)c(C#N)s3)c2cc1OC [IKK-3 Inhibitor IX]
- Zscore_1 [1]: 3.754
- Zscore_2 [2]: 2.454
- Zscore_AVG [3]: 3.104

Compound: O=C(Nc1cccc(Nc2cc(Nc3cccc(C(F)(F)F)c3)ncn2)c1)C1CC1 [EGFR Inhibitor]
- Zscore_1 [1]: 2.026
- Zscore_2 [2]: 1.568
- Zscore_AVG [3]: 1.797

Compound: O=C1C(Cl)=C(N2C(=O)CCC2=O)C(=O)c2ccccc21 [MEK Inhibitor II]
- Zscore_1 [1]: −2.22
- Zscore_2 [2]: −1.364
- Zscore_AVG [3]: −1.792

Compound: O=c1cc(N2CCOCC2)nc2c3ccccc3ccn12 [Compound 401]
- Zscore_1 [1]: 2.829
- Zscore_2 [2]: 15.49
- Zscore_AVG [3]: 9.162

Compound: Cn1c2ccccc2c2c3c(c4c5ccccc5n(CCC#N)c4c21)CNC3=O [G? 6976]
- Zscore_1 [1]: −6.424
- Zscore_2 [2]: −4.191
- Zscore_AVG [3]: −5.308

Compound: COc1cc2ncc(-c3ccccc3)nc2cc1OC [AG 1296]
- Zscore_1 [1]: 0.5275
- Zscore_2 [2]: −0.8562
- Zscore_AVG [3]: −0.1643

Compound: Cl.Cl.Nc1ncnc2nc(-c3ccc(N4CCOCC4)nc3)cc(-c3cccc(Br)c3)c12 [Adenosine Kinase Inhibitor]
- Zscore_1 [1]: 0.3983
- Zscore_2 [2]: 0.5922
- Zscore_AVG [3]: 0.4953

Compound: CaMKII Inhibitor, CK59
- Zscore_1 [1]: −0.8337
- Zscore_2 [2]: −0.5161
- Zscore_AVG [3]: −0.6749

Compound: CCN(CC)CCNC(=O)c1c(C)[nH]c(/C=C2\C(=O)Nc3ccc(Cl)cc32)c1C [SU11652]
- Zscore_1 [1]: 8.033
- Zscore_2 [2]: −6.691
- Zscore_AVG [3]: 0.671

Compound: O=C1Nc2cc(Br)ccc2/C1=C1/Nc2ccccc2/C1=N\O [GSK-3 Inhibitor IX]
- Zscore_1 [1]: 25.07
- Zscore_2 [2]: 34.88
- Zscore_AVG [3]: 29.98

Compound: CS(=O)(=O)c1ccc(-c2nc(-c3ccc(F)cc3)c(-c3ccncc3)[nH]2)cc1 [SB 203580, Sulfone]
- Zscore_1: 2.85
- Zscore_2: −0.6448
- Zscore_AVG: 1.103

Compound: COc1cc2ncnc(Nc3cccc(O)c3)c2cc1OC [WHI-P180, Hydrochloride]
- Zscore_1 [1]: −4.627
- Zscore_2 [2]: −4.112
- Zscore_AVG [3]: −4.37

Compound: CCCCCCOC(=O)[C@]1(O)C[C@@H]2O[C@@]1(C)n1c3ccccc3c3c4c(c5c6ccccc6n2c5c31)C(=O)NC4 [KT5720]
- Zscore_1 [1]: 10.81
- Zscore_2 [2]: 13.17
- Zscore_AVG [3]: 11.99
